Measurements published in publication PMC8310277 (Viruses, 2021).
Where a SMILES comes first, the peptide text is derived from it. Bridges are numbered along the chain shown (N, C = ends).

What was measured:
[1] = system: pseudotyped virus expressing SARS-CoV-2 S protein from the P.1 variant; format: cell-based
[2] = system: pseudotyped virus expressing SARS-CoV-2 S protein from the B.1.1.7 variant; format: cell-based

CC[C@H](C)[C@@H]1NC(=O)[C@H](CCC(=O)O)NC(=O)[C@@H]2CSSC[C@@H]3NC(=O)[C@H](Cc4ccc(O)cc4)NC(=O)[C@@H](NC(=O)[C@@H](NC(=O)[C@H](C)N)[C@@H](C)O)CSSC[C@@H](C(=O)N[C@@H](CCCNC(=N)N)C(=O)O)NC(=O)[C@H](CSSC[C@H](NC(=O)[C@H](CCCNC(=N)N)NC(=O)CNC(=O)[C@H]([C@@H](C)O)NC(=O)[C@H](CCCNC(=N)N)NC3=O)C(=O)N[C@@H](C)C(=O)N[C@@H]([C@@H](C)O)C(=O)N[C@@H](CCCNC(=N)N)C(=O)N[C@@H](CCC(=O)O)C(=O)N[C@@H](CO)C(=O)N[C@@H](CC(C)C)C(=O)N[C@@H](CO)C(=O)NCC(=O)N[C@@H](C(C)C)C(=O)N2)NC(=O)[C@H](CC(C)C)NC(=O)[C@H](CCCNC(=N)N)NC(=O)[C@H](Cc2ccc(O)cc2)NC(=O)[C@H](CC(C)C)NC(=O)[C@H](CCCNC(=N)N)NC(=O)CNC(=O)[C@H](CO)NC1=O [HD5] (H-ATCYCRTGRCATRESLSGVCEISGRLYRLCCR-OH; disulfide 3-31, 5-20, 10-30 (inferred); N-terminus and C-terminus assumed)
effect on P.1 variant (in words) [1]: suppressed the P.1 variant in a dose-dependent manner | suppression of P1 infection ([1]; 50 μg/mL): 72% | effect on B.1.1.7 variant (in words) [2]: moderate antiviral activity | inhibition of B.1.1.7 infection ([2]; 50 μg/mL): 32%
